Source: patent US20140329854A1, “NOVEL HETEROCYCLIC COMPOUNDS USEFUL IN SIRTUIN BINDING AND MODULATION” (SMB Innovation, priority 2011, published 2014)
Values after ≈ are worked out from the molar mass of the structure shown.

Experiments:
[1] = Kinetic aqueous solubility; assay type: physicochemical; details: phosphate buffer, pH 7.4, aqueous buffer, kinetic from dmso stock; read-out: Measured kinetic solubility
[2] = Measured partition coefficients (MlogD7.4, logP11); assay type: physicochemical
Procedure: Physical properties tPSA and ClogP (calculated lipophilicity octanol/water) were calculated using ChemDraw. Additionally, M log D7.4 (measured partition coefficient at pH 7.4) and log P11 (measured partition coefficient at pH 11) were measured, and all data are shown in Table 7.

[3] = system: CYP1A2, CYP2C9, CYP2C19, CYP2D6, CYP3A4; assay: CYP inhibition in human liver microsomes
[4] = system: human and rat hepatocytes; assay: Stability in cryopreserved hepatocytes (FIG. 7), verbal summary; assay type: in vitro ADME; details: 90 minutes
Procedure: (§1) Stability of the six compounds in the presence of a drug metabolizing system such as human and rat hepatocytes was measured. Data were reported from the CRO in the format of hepatic intrinsic clearance (CLint) in mL/min/kg. These CLint data were converted using the well-stirred equation

rat hepatocytes = assay: Metabolic stability in rat hepatocytes; assay type: in vitro ADME; details: rat Qh = 55 mL/min/kg
Procedure: as §1
(§2) to a whole body clearance (CLh, hepatic clearance), which is more directly physiologically interpreted (Qh, hepatic blood flow rate, mL/min/kg).

[5] = Metabolic stability in rat hepatocytes; assay type: in vitro ADME; details: rat hepatocytes, hepatic intrinsic clearance
Procedure: as §1, §2

MDCK-MDR1 cells = system: MDCK-MDR1 cells
Excerpt: MDR1 is the nomenclature for the major efflux transporter P-glycoprotein (P-gp), which is expressed at important anatomical barriers such as blood-brain, small intestine, and tumor cells. The MDCK-MDR model is a polarized cell model over expressing P-gp (i.e. P-gp is expressed on the Apical, or gut lumen, side of the cell) that is capable of actively effluxing small molecule substrates in the B to A direction. […] The compounds were run bidirectionally (Compound added to apical side and flux measured of compound appearing on the basolateral, or blood, side; compound added on basolateral side and flux of compound to apical side measured).

[6] = Solubility in DMSO stock solution; details: solubility in DMSO before further dilution with water to 1% DMSO
human hepatocytes = assay: Metabolic stability in human hepatocytes; assay type: in vitro ADME; details: human Qh = 21 mL/min/kg
Procedure: as §1, §2

[7] = Metabolic stability in human hepatocytes; assay type: in vitro ADME; details: human hepatocytes, hepatic intrinsic clearance; read-out: hu CLint
Procedure: as §1, §2

SIRT1 = target: T1, SIRT1 (Homo sapiens, UniProt Q96EB6); assay: CISBIO HTRF SIRT1 assay of SIRT1 peptide deacetylation, modified by excluding NAD+; assay type: biochemical; details: average AC50 values, n = 6; read-out: AC50
T1 construct: purchased Cisbio Bioassays
T1 sequence (Q96EB6 1-747): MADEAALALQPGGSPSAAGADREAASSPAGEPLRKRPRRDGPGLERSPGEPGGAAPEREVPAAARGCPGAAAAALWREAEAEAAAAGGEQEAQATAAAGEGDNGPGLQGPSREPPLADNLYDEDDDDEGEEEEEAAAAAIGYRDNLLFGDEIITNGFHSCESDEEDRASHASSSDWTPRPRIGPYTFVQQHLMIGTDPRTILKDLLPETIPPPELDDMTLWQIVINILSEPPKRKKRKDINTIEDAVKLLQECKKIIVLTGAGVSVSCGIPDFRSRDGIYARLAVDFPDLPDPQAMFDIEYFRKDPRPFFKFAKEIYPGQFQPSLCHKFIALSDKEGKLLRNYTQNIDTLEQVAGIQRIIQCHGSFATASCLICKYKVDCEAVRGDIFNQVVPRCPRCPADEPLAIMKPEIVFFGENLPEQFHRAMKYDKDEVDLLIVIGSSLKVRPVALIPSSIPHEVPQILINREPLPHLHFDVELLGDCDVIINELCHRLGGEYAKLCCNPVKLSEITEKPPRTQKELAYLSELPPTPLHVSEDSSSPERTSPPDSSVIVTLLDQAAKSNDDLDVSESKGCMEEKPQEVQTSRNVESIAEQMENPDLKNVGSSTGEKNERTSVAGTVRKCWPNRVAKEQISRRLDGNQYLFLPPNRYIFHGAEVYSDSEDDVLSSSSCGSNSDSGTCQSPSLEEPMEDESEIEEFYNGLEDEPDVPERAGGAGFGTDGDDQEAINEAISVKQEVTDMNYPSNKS
Procedure: Generally, the CISBIO HTRF® fluorescence enzyme titration assay (Cisbio Bioassays, Cisbio, 135 South Road, Bedford, Mass. 01730, USA) has provided information on inhibition and/or activation of SIRT1 deacetylation of a substrate peptide d2 containing a single acetylated lysine residue and a fluorescence probe/quencher. IC50 and AC50 values have been obtained. The assay was performed in microtiter wells and involved an enzymatic step, wherein 2 μL of the substrate peptide (6 nM) is incubated with 2 μL of SIRT1 enzyme (2.5 ng) and 2 μL of compound solution in DMSO and water. Reaction with anti-acetyl cryptate produces a FRET signal giving maximum signal when no SIRT1 reaction can be detected. The detection step involves quantification of the deacetylation process using an anti-acetyl MAb labeled with Eu^3+ cryptate. The assay was modified by excluding the NAD+ cofactor and using nicotinamide as inhibition control and the compound SRT1720 as activation control. SRT 1720 is described as a SIRT1 activating compound in Pillarisetti, S. (2008).
Protocol for inhibition/activation assay:
After adding all enzymatic step ingredients the mixture is incubated at room temperature at 30 to 60 min. Then the detection reactant is added and incubated at room temperature for 5 hours and on to produce a signal. The fluorescence readout is given as percentage of signal produced with no enzyme reaction.
The cryptate is excited at 337 nm and the fluorescence is measured at 590 nm (cryptate emission wavelength) and 665 nm (d2 emission wavelength). A ratio is calculated (665/590 nm) for each well.
The figures show percentage fluorescence as a function of Log C (log of compound concentration in μM).

[8] = hepatic clearance from CLint by well-stirred equation

solubility kinetic [1]: 14 to 55 µg/mL (≈ 51.2 to 201 µM)
logD ([2]; measured partition coefficient at pH 7.4): 0.8
logP ([2]; measured partition coefficient at pH 11, read-out: MlogP11): 1
IC50 [3]: > 5 µM
Clearance in hepatocytes (in words) [4]: relatively low clearance
Stability in hepatocytes (in words) [4]: good stability
% Qh (rat) (rat hepatocytes; CLh as % of hepatic blood flow): 49.1%
rat CLh (rat hepatocytes; [8]): 27.0 mL/min/kg
CLint scaled [5]: 53 mL/min/kg
Cell permeability (in words) (MDCK-MDR1 cells): moderate cell permeability
P-gp mediated efflux (in words) (MDCK-MDR1 cells): no P-gp mediated efflux
Concentration of compound in DMSO stock solution [6]: 20000 µM
% Qh (human) (human hepatocytes; CLh as % of hepatic blood flow): 79.8%
hu CLh (human hepatocytes; [8]): 16.8 mL/min/kg
CLint scaled [7]: 83 mL/min/kg
AC50 (SIRT1): 10 µM
Structure (SMILES): NC(=O)c1ccc(C(=O)Nc2ccc(O)cc2O)nc1 [Compound 3, 2-N(2,4-dihydroxyphenyl)pyridine-2,5-dicarboxamide]
